ChEMBL document CHEMBL3886937, “Pyrimidodiazepinone compound” (2016)

Assay: [3H]-Gabapentin Binding Assay: A test compound (20 μL) diluted to 5 times of the final concentration with Binding buffer, [3H]-gabapentin diluted to 100 nmol/L with binding buffer [20 μL (final concentration 20 nmol/L)], and the rat cerebral cortex membrane fraction (60 μL; 12 μg membrane fraction) obtained in the (1) above were added to each well of a 96-well round-bottom plate. After being sufficiently mixed, these were allowed to react at room temperature for 1 hour. After the reaction, the reaction sample was suction filtered using a filter plate with 50 μL/well of 0.3 vol % polyethyleneimine added, and a cell harvester. The filter was then washed with ice-cooled Wash buffer (100 mmol/L NaCl, 0.1 w/v % BSA). After being washed, the filter plate was dried, and a scintillation cocktail (MicroScint-20, purchased from PerkinElmer) was added (50 μL/well), and the radioactivity on the filter was measured. The radioactivity obtained in the absence of the test compound was measured as total binding amount, and the radioactivity obtained by addition of an unlabeled gabapentin (final concentration 100 mmol/L) as a test compound was measured as non-specific binding amount.

Row | IC50 | SMILES
1 | 3 nM | CCCNc1ncc2c(n1)N1CCC[C@H]1CN(c1cccc3c(=O)n(C)cnc13)C2=O
2 | 4.7 nM | CNc1ncc2c(n1)N1CCC[C@H]1CN(c1cccn3c(=O)c(C)c(C)nc13)C2=O
3 | 5.2 nM | CCNc1ncc2c(n1)N1CCC[C@H]1CN(c1cccn3c(=O)cc(C)nc13)C2=O
4 | 3.8 nM | CCNc1ncc2c(n1)N1CCC[C@H]1CN(c1cccc3c(=O)n(C)c(COC)nc13)C2=O
5 | 4 nM | CCn1cnc2c(N3C[C@@H]4CCCN4c4nc(NC)ncc4C3=O)cccc2c1=O
6 | 4.8 nM | CCNc1ncc2c(n1)N1CCC[C@H]1CN(c1cccc3c(=O)n(CCF)c(C)nc13)C2=O
7 | 2.6 nM | CNc1ncc2c(n1)N1CCC[C@H]1CN(c1cccc3c(=O)n(C)cnc13)C2=O
8 | 5 nM | CCNc1ncc2c(n1)N1CCC[C@H]1CN(c1cccc3c(=O)n(C)ccc13)C2=O
9 | 1.2 nM | CNc1ncc2c(n1)N1CCC[C@H]1CN(c1cccc3c(=O)n(CCCN(C)C)cnc13)C2=O
10 | 4.1 nM | CNc1ncc2c(n1)N1CCC[C@H]1CN(c1cncc3c(=O)n(C)cnc13)C2=O
11 | 2.6 nM | CCNc1ncc2c(n1)N1CCC[C@H]1CN(c1cccc3c(=O)n(C)c(C)nc13)C2=O
12 | 2.7 nM | CCNc1ncc2c(n1)N1CCC[C@H]1CN(c1cccn3c(=O)c(C)c(C)nc13)C2=O
13 | 3.9 nM | CCNc1ncc2c(n1)N1CCC[C@H]1CN(c1cccc3ncn(C)c(=O)c13)C2=O
14 | 3 nM | CCNc1ncc2c(n1)N1CCC[C@H]1CN(c1scc3c(=O)n(C)cnc13)C2=O
15 | 0.7 nM | CCNc1ncc2c(n1)N1CCC[C@H]1CN(c1cccc3c(=O)n(CCCN(C)C)cnc13)C2=O
16 | 3.6 nM | CNc1ncc2c(n1)N1CCC[C@H]1CN(c1c[nH]c3ncn(C)c(=O)c13)C2=O
17 | 2.6 nM | CCNc1ncc2c(n1)N1CCC[C@H]1CN(c1c[nH]c3ncn(C)c(=O)c13)C2=O
